{"source": "patent US20170009228A1", "about": "“BIOLOGICAL MATERIALS AND THERAPEUTIC USES THEREOF” (IMPERIAL INNOVATIONS LIMITED, priority 2014, published 2017)", "key": {"[1]": {"test_system": "human dermal fibroblasts (HDF)", "experiment": "Cell adhesion to coated FBG, human dermal fibroblasts", "assay_type": "cell-based", "settings": "coated wells, 45 minutes, crystal violet", "experimental": "(§1) (A) The sequence identified to bind integrin ≢vβ3 is shown in white (Yokoyama et al., 2000). Within this sequence two Arginines (shown in black) were identified to be citrullinated. (B) Wells of a 96 well plate were coated with different concentrations of FBG, citrullinated FBG (cFBG), FBG incubated in buffer without Calcium (FBG —Ca^2+), or FBG incubated without PAD (FBG -PAD). As a positive control wells were coated with Fibronectin (FN) (1 ug/ml), and coating with BSA (10 mg/ml) served as negative control. Plates were incubated with human dermal fibroblasts (HDF) or synovial fibroblasts from RA patients (RAF) for 45 minutes and adhesion was measured by determining absorbance of attached cells after staining with crystal violet (0.1%). Data are shown as the mean of at least four independent experiments+s.e.m., *=p<0.05, **=p<0.01."}, "[2]": {"test_system": "primary human macrophages", "experiment": "Cytokine synthesis in primary human macrophages stimulated with tenascin-C or its domains", "assay_type": "cell-based", "experimental": "Human monocytes were isolated from peripheral blood (London Blood Bank) and macrophages were derived from monocytes after differentiation for 4 days with 100 ng/ml of M-CSF as previously described (Foxwell (1998)).\n(§2) Immediately after isolation, RA membrane cells and macrophages were cultured at 1×10^5 cells/well in RPMI 1640 containing 10% (v/v) FBS and 100 U/ml (Units/ml) penicillin/streptomycin in 96-well tissue culture plates for 24 hours before stimulation. Synovial fibroblasts (used only at either passage number 2 or 3) were cultured at 1×10^4 cells/well in DMEM containing 10% (v/v) FBS and 100 U/ml penicillin/streptomycin in 96-well tissue culture plates for 24 hours before stimulation.\n(§3) Cells were incubated for 24 hours at 37° C. with the indicated doses of tenascin-C and recombinant tenascin-C fragments (1.0 μM-1.0 nM). Cells were also stimulated where indicated with LPS (1 ng/ml for human macrophages, 10 ng/ml for human fibroblasts, RA membrane cells and HEKs, 100 ng/ml for MEFS and BMDMs and 10 ng/ml for HEKS), PAM3 (10 ng/ml for human macrophages, human fibroblasts, and HEKs, 100 ng/ml for MEFs and BMDMs), murine IL-1 (5 ng/ml for MEFS) and murine TNF-α (100 ng/ml for MEFS). Unless specifically stated otherwise rough LPS was used for in vitro studies.\nWhere stated, cells were pre-incubated with 10 μg/ml anti-CD14 antibody, 10 μg/ml IL1 receptor antagonist, 10 μg/ml anti-TLR2 antibody, 25 μg/ml anti-TLR4 antibody, 10 or 25 μg/ml isotype control antibody, 25 μg/ml polymyxin B, or 1 μg/ml msbB LPS, for 30 minutes at 37° C. before stimulation. Where stated, recombinant tenascin-C and FBG, and LPS were boiled for 15 minutes before addition to cells\n(§4) Supernatants were subsequently examined for the presence of the cytokines TNF-α, IL-6, and IL-8 by enzyme-linked immunosorbent assay (ELISA) according to the manufacturer's instructions. Absorbance was read on a spectrophotometric ELISA plate reader (Labsystems Multiscan Biochromic, Vantaa, Finland) and analyzed using the Ascent software program (Thermo Labsystems, Altrincham, UK)."}, "[3]": {"test_system": "synovial fibroblasts from RA patients (RAF)", "experiment": "Cell adhesion to coated FBG, RA synovial fibroblasts", "assay_type": "cell-based, human", "settings": "coated wells, 45 minutes, crystal violet", "experimental": "as §1"}, "[4]": {"test_system": "MyD88", "experiment": "Cytokine synthesis in embryonic fibroblasts from MyD88 deficient mice", "assay_type": "cell-based", "experimental": "(§5) MEFs express high levels of mRNA of all 9 murine TLRs and are specifically and highly responsive to TLR ligand activation. […] MEFs were isolated from d13 embryos harvested from age-matched, pregnant female wild type, TLR2, TLR4 and null mice (as described in Todaro (1963)). Fibroblasts were cultured at 2×10^4 cells/well in DMEM containing 10% (v/v) FBS and 100 U/ml penicillin/streptomycin in 96-well tissue culture plates for 24 hours before stimulation.\nas §3, §4"}, "[5]": {"test_system": "RA synovial fibroblasts", "experiment": "Cytokine synthesis in RA synovial fibroblasts stimulated with tenascin-C, FBG or LPS", "assay_type": "cell-based, human", "settings": "RA synovial fibroblasts, 24 h", "from_the_text": "RA membrane cells (representing a mixed population of all synovial cell types) were isolated from synovial membranes obtained from patients undergoing joint replacement surgery as previously described (Brennan (1989)). RA synovial fibroblasts were isolated from the mixed population of RA membrane cells as previously described (Brennan (1989)). The study was approved by the local Trust ethics committee (Riverside NHS Research Committee), and waste tissue (synovium after joint replacement surgery) was obtained only after receiving signed informed consent from the patient and anonymyzing the tissue to protect patient identity.\nas §2, §3, §4"}, "[6]": {"test_system": "TLR4", "experiment": "Cytokine synthesis in embryonic fibroblasts or macrophages from TLR4 deficient mice", "assay_type": "cell-based", "experimental": "as §5\nBMDMs were derived by aspirating the femurs of age matched female wild type, TLR2 and TLR4 null mice as described in Butler (1999)) and culturing the cells for 7 days in DMEM, 20% (v/v) FBS, 10 ml/L (v/v) antibiotic-antimycotic solution PSA, 50 μM β-Mercaptoethanol and 10 ng/ml M-CSF. Macrophages were then cultured at 1×10^5 cells/well in DMEM, 20% (v/v) FBS, 10 ml/L (v/v) antibiotic-antimycotic solution PSA, 50 μM β-Mercaptoethanol in 96-well tissue culture plates for 24 hours before stimulation.\nas §3, §4"}}, "data": [{"substance": "FBG: recombinant fibrinogen-like globe, 227 amino acid globular domain at the C terminal of tenascin-C", "values": [{"measurement": "adhesion of human dermal fibroblasts (HDF)", "setting": "[1]", "value": "proadhesive"}, {"measurement": "heat and polymyxin B sensitivity of cytokine stimulation", "setting": "[2]; boiled 15 min, 25 μg/ml polymyxin B pre-incubation", "value": "heat sensitive and unaffected by polymyxin B"}, {"measurement": "production of TNF-α, IL-6 and IL-8", "setting": "[2]; human macrophages, 24 h, 1.0 μM-1.0 nM", "value": "to an equal extent to full-length tenascin-C"}, {"measurement": "adhesion of synovial fibroblasts from RA joints (RAF)", "setting": "[3]", "value": "proadhesive"}, {"measurement": "cytokine synthesis", "setting": "[4]; MEFs from MyD88 deficient mice, 24 h", "value": "does not stimulate cytokine synthesis"}, {"measurement": "responsiveness after re-transfection of wild type MyD88", "setting": "[4]; MyD88 deficient MEFs, data not shown", "value": "restored the responsiveness"}, {"measurement": "IL-6 synthesis", "setting": "[5]", "value": "to an equal extent to full-length tenascin-C"}, {"measurement": "IL-8 synthesis", "setting": "[5]", "value": "did not induce"}, {"measurement": "cytokine synthesis", "setting": "[6]", "value": "does not stimulate cytokine synthesis"}]}]}
